The OligoGym collection
Several values for one entry are separate records, joined by “and”; a condition that tells them apart may be missing. Equal entries are not always repeated. HELM strings list units from the 5' end as sugar, base in round brackets, then linkage (d deoxyribose, r ribose, m 2'-O-methyl, p phosphodiester). Strings are as the collection lists them, not checked against the first reports. ss, as = sense and antisense strand; [lna] = locked nucleic acid (LNA); [hna] = hexitol nucleic acid; [s4r] = 4'-thioribose; [fl2r] = 2'-fluoro

Conditions: siRNA
Note: test system not given here.

Substance	target mRNA knockdown
RNA1{r(C)p.r(G)p.m(C)p.r(C)p.r(C)p.m(C)p.r(C)p.r(C)p.r(U)p.m(C)p.r(A)p.r(A)p.r(G)p.r(C)p.m(U)p.r(A)p.r(C)p.r(C)p.r(G)p.r(T)p.r(T)}|RNA2{r(C)p.r(G)p.r(G)p.m(U)p.r(A)p.r(G)p.r(C)p.r(U)p.m(U)p.r(G)p.r(A)p.r(G)p.r(G)p.r(G)p.r(G)p.r(G)p.r(G)p.r(C)p.r(G)p.r(T)p.r(T)}$$$RNA1{StrandType:ss}|RNA2{StrandType:as}$	72%
RNA1{r(C)p.r(G)p.r(U)p.r(A)p.r(C)p.r(G)p.r(C)p.r(G)p.r(G)p.r(A)p.r(A)p.r(U)p.r(A)p.r(C)p.r(U)p.r(U)p.r(C)p.r(G)p.r(A)p.r(T)p.r(T)}|RNA2{[s4r](U)p.r(C)p.r(G)p.r(A)p.r(A)p.r(G)p.[s4r](U)p.r(A)p.[s4r](U)p.[s4r](U)p.r(C)p.r(C)p.r(G)p.r(C)p.r(G)p.[s4r](U)p.r(A)p.r(C)p.r(G)p.r(T)p.r(T)}$$$RNA1{StrandType:ss}|RNA2{StrandType:as}$	79.5%
RNA1{m(G)p.r(A)p.m(A)p.r(U)p.m(A)p.r(A)p.m(C)p.r(C)p.m(U)p.r(G)p.m(A)p.r(A)p.m(C)p.r(G)p.m(U)p.r(C)p.m(A)p.r(C)p.m(C)p.r(T)p.r(T)}|RNA2{r(G)p.r(G)p.r(U)p.r(G)p.r(A)p.r(C)p.r(G)p.r(U)p.r(U)p.r(C)p.r(A)p.r(G)p.r(G)p.r(U)p.r(U)p.r(A)p.r(U)p.r(U)p.r(C)p.r(T)p.r(T)}$$$RNA1{StrandType:ss}|RNA2{StrandType:as}$	17%
RNA1{m(G)p.r(A)p.m(A)p.r(A)p.m(C)p.r(U)p.m(G)p.r(G)p.m(U)p.r(A)p.m(C)p.r(U)p.m(U)p.r(U)p.m(C)p.r(C)p.m(C)p.r(C)p.m(C)p.r(T)p.r(T)}|RNA2{r(G)p.r(G)p.r(G)p.r(G)p.r(G)p.r(A)p.r(A)p.r(A)p.r(G)p.r(U)p.r(A)p.r(C)p.r(C)p.r(A)p.r(G)p.r(U)p.r(U)p.r(U)p.r(C)p.r(T)p.r(T)}$$$RNA1{StrandType:ss}|RNA2{StrandType:as}$	57%
RNA1{[hna](G)p.[hna](A)p.[hna](C)p.r(G)p.r(U)p.r(A)p.r(A)p.r(A)p.r(C)p.r(G)p.r(G)p.r(C)p.r(C)p.r(A)p.r(C)p.r(A)p.r(A)p.[hna](G)p.[hna](U)p.[hna](U)p.d(T)}|RNA2{[fl2r](A)p.m(C)p.[fl2r](U)p.m(U)p.[fl2r](G)p.m(U)p.[fl2r](G)p.m(G)p.[fl2r](C)p.m(C)p.[fl2r](G)p.m(U)p.[fl2r](U)p.m(U)p.[fl2r](A)p.m(C)p.[fl2r](G)p.m(U)p.[fl2r](C)p.m(G)p.[fl2r](C)}$$$RNA1{StrandType:ss}|RNA2{StrandType:as}$	81.8%
RNA1{r(A)p.r(G)p.r(A)p.r(A)p.r(G)p.[fl2r](U)p.r(A)p.r(C)p.r(C)p.r(A)p.r(G)p.r(G)p.r(A)p.r(G)p.r(G)p.r(C)p.r(G)p.r(U)p.r(U)p.r(T)p.r(T)}|RNA2{r(A)p.r(A)p.r(C)p.r(G)p.r(C)p.r(C)p.r(U)p.r(C)p.r(C)p.[fl2r](U)p.r(G)p.r(G)p.r(U)p.r(A)p.r(C)p.r(U)p.r(U)p.r(C)p.r(U)p.r(T)p.r(T)}$$$RNA1{StrandType:ss}|RNA2{StrandType:as}$	60%
RNA1{r(U)p.m(U)p.r(A)p.r(A)p.r(G)p.r(G)p.r(A)p.r(G)p.r(A)p.r(A)p.r(G)p.r(C)p.r(U)p.r(G)p.r(A)p.r(C)p.r(G)p.r(G)p.r(C)p.r(T)p.r(T)}|RNA2{r(G)p.r(C)p.r(C)p.r(G)p.r(U)p.r(C)p.r(A)p.r(G)p.r(C)p.r(U)p.r(U)p.r(C)p.r(U)p.r(C)p.r(C)p.r(U)p.m(U)p.r(A)p.r(A)p.r(T)p.r(T)}$$$RNA1{StrandType:ss}|RNA2{StrandType:as}$	69%
RNA1{m(G)p.r(A)p.m(G)p.r(A)p.m(G)p.r(A)p.m(G)p.r(A)p.m(C)p.r(G)p.m(G)p.r(U)p.m(G)p.r(G)p.m(A)p.r(A)p.m(G)p.r(A)p.m(A)p.r(T)p.r(T)}|RNA2{r(U)p.r(U)p.r(C)p.r(U)p.r(U)p.r(C)p.r(C)p.r(A)p.r(C)p.r(C)p.m(G)p.r(U)p.r(C)p.r(U)p.r(C)p.r(U)p.r(C)p.r(U)p.r(C)p.r(T)p.r(T)}$$$RNA1{StrandType:ss}|RNA2{StrandType:as}$	56%
RNA1{[s4r](A)p.[s4r](A)p.[s4r](A)p.[s4r](C)p.[s4r](A)p.[s4r](U)p.r(G)p.r(C)p.r(A)p.r(G)p.r(A)p.r(A)p.r(A)p.[s4r](A)p.[s4r](U)p.[s4r](G)p.[s4r](C)p.[s4r](U)p.[s4r](G)p.r(T)p.r(T)}|RNA2{r(C)p.r(A)p.r(G)p.r(C)p.r(A)p.r(U)p.r(U)p.r(U)p.r(U)p.r(C)p.r(U)p.r(G)p.r(C)p.r(A)p.r(U)p.r(G)p.r(U)p.r(U)p.r(U)p.r(T)p.r(T)}$$$RNA1{StrandType:ss}|RNA2{StrandType:as}$	75.4% and 87%
RNA1{r(C)p.r(C)p.r(U)p.r(C)p.r(C)p.r(C)p.m(C)p.r(A)p.r(U)p.r(C)p.r(C)p.r(C)p.r(C)p.r(U)p.r(U)p.r(U)p.m(U)p.r(A)p.r(A)p.r(T)p.r(T)}|RNA2{r(U)p.r(U)p.m(A)p.r(A)p.r(A)p.r(A)p.r(G)p.r(G)p.r(G)p.r(G)p.r(A)p.m(U)p.r(G)p.r(G)p.r(G)p.r(G)p.r(A)p.r(G)p.r(G)p.r(T)p.r(T)}$$$RNA1{StrandType:ss}|RNA2{StrandType:as}$	80%
RNA1{r(A)p.m(A)p.r(G)p.m(G)p.r(A)p.m(G)p.r(A)p.m(U)p.r(C)p.m(A)p.r(A)p.m(C)p.r(A)p.m(U)p.r(U)p.m(U)p.r(U)p.m(C)p.r(A)p.r(T)p.r(T)}|RNA2{m(U)p.r(G)p.m(A)p.r(A)p.m(A)p.r(A)p.m(U)p.r(G)p.m(U)p.r(U)p.m(G)p.r(A)p.m(U)p.r(C)p.m(U)p.r(C)p.m(C)p.r(U)p.m(U)p.r(T)p.r(T)}$$$RNA1{StrandType:ss}|RNA2{StrandType:as}$	83%
RNA1{[s4r](A)p.[s4r](A)p.[s4r](A)p.[s4r](C)p.r(A)p.r(U)p.r(G)p.r(C)p.r(A)p.r(G)p.r(A)p.r(A)p.r(A)p.r(A)p.r(U)p.[s4r](A)p.[s4r](C)p.[s4r](C)p.[s4r](U)p.r(T)p.r(T)}|RNA2{[s4r](C)p.[s4r](A)p.r(G)p.r(C)p.r(A)p.r(U)p.r(U)p.r(U)p.r(U)p.r(C)p.r(U)p.r(G)p.r(C)p.r(A)p.r(U)p.r(G)p.r(U)p.[s4r](U)p.[s4r](U)p.r(T)p.r(T)}$$$RNA1{StrandType:ss}|RNA2{StrandType:as}$	80.8%
RNA1{r(G)p.r(A)p.r(A)p.r(A)p.r(A)p.r(C)p.r(G)p.r(C)p.r(U)p.r(U)p.r(G)p.r(U)p.r(A)p.r(A)p.r(A)p.r(G)p.r(C)p.r(C)p.r(G)p.r(T)p.r(T)}|RNA2{r(C)p.r(G)p.r(G)p.r(C)p.r(U)p.r(U)p.m(U)p.r(A)p.r(C)p.r(A)p.r(A)p.r(G)p.r(C)p.r(G)p.r(U)p.r(U)p.r(U)p.r(U)p.r(C)p.r(T)p.r(T)}$$$RNA1{StrandType:ss}|RNA2{StrandType:as}$	56%
RNA1{r(C)p.r(U)p.r(U)p.r(A)p.r(C)p.r(G)p.r(C)p.r(U)p.r(G)p.r(A)p.r(G)p.r(U)p.r(A)p.r(C)p.r(U)p.r(U)p.r(C)p.r(G)p.r(A)p.r(T)p.r(T)}|RNA2{r(T)p.r(C)p.r(G)p.r(A)p.r(A)p.r(G)p.r(U)p.r(A)p.r(C)p.r(U)p.r(C)p.r(A)p.r(G)p.r(C)p.[lna](G)p.r(U)p.r(A)p.r(A)p.r(G)p.[lna](T)p.[lna](T)}$$$RNA1{StrandType:ss}|RNA2{StrandType:as}$	87%
RNA1{r(A)p.r(A)p.r(C)p.r(A)p.r(G)p.r(C)p.r(C)p.r(U)p.r(U)p.r(A)p.r(C)p.r(C)p.r(C)p.r(C)p.r(G)p.r(A)p.r(U)p.r(U)p.r(C)p.r(T)p.r(T)}|RNA2{r(G)p.r(A)p.r(A)p.r(U)p.r(C)p.r(G)p.r(G)p.r(G)p.r(G)p.m(U)p.r(A)p.r(A)p.r(G)p.r(G)p.r(C)p.r(U)p.r(G)p.r(U)p.r(U)p.r(T)p.r(T)}$$$RNA1{StrandType:ss}|RNA2{StrandType:as}$	69%
RNA1{r(C)p.r(U)p.r(U)p.r(A)p.r(C)p.r(G)p.r(C)p.r(U)p.r(G)p.r(A)p.r(G)p.r(U)p.r(A)p.r(C)p.r(U)p.r(U)p.r(C)p.r(G)p.r(A)p.r(T)p.r(T)}|RNA2{r(T)p.r(C)p.r(G)p.r(A)p.r(A)p.r(G)p.r(U)p.r(A)p.r(C)p.[lna](T)p.r(C)p.r(A)p.r(G)p.r(C)p.r(G)p.r(U)p.r(A)p.r(A)p.r(G)p.[lna](T)p.[lna](T)}$$$RNA1{StrandType:ss}|RNA2{StrandType:as}$	60%
RNA1{[s4r](A)p.[s4r](A)p.[s4r](A)p.[s4r](C)p.r(A)p.r(U)p.r(G)p.r(C)p.r(A)p.r(G)p.r(A)p.r(A)p.r(A)p.r(A)p.r(U)p.r(G)p.r(C)p.r(U)p.r(G)p.r(T)p.r(T)}|RNA2{r(C)p.r(A)p.r(G)p.r(C)p.r(A)p.r(U)p.r(U)p.r(U)p.r(U)p.r(C)p.r(U)p.r(G)p.r(C)p.r(A)p.r(U)p.r(G)p.r(U)p.r(U)p.r(U)p.r(T)p.r(T)}$$$RNA1{StrandType:ss}|RNA2{StrandType:as}$	70.4%
RNA1{r(U)p.r(A)p.r(C)p.r(C)p.r(G)p.r(A)p.r(G)p.r(A)p.r(A)p.r(U)p.r(G)p.m(A)p.r(G)p.m(C)p.r(C)p.m(U)p.r(G)p.m(A)p.r(U)p.r(T)p.r(T)}|RNA2{m(A)p.r(U)p.m(C)p.r(A)p.m(G)p.r(G)p.m(C)p.r(U)p.m(C)p.r(A)p.m(U)p.r(U)p.m(C)p.r(U)p.m(C)p.r(G)p.m(G)p.r(U)p.m(A)p.r(T)p.r(T)}$$$RNA1{StrandType:ss}|RNA2{StrandType:as}$	23%
RNA1{m(G)p.r(G)p.m(U)p.r(A)p.m(G)p.r(A)p.m(A)p.r(U)p.m(A)p.r(G)p.m(G)p.r(U)p.m(U)p.r(U)p.m(U)p.r(C)p.m(C)p.r(C)p.m(C)p.r(T)p.r(T)}|RNA2{r(G)p.r(G)p.r(G)p.r(G)p.r(A)p.r(A)p.r(A)p.r(A)p.r(C)p.r(C)p.r(U)p.r(A)p.r(U)p.r(U)p.r(C)p.r(U)p.r(A)p.r(C)p.r(C)p.r(T)p.r(T)}$$$RNA1{StrandType:ss}|RNA2{StrandType:as}$	11%
RNA1{r(G)p.r(A)p.r(A)p.r(A)p.r(A)p.r(C)p.r(G)p.r(C)p.r(U)p.m(U)p.r(G)p.m(U)p.r(A)p.r(A)p.r(A)p.r(G)p.r(C)p.r(C)p.r(G)p.r(T)p.r(T)}|RNA2{r(C)p.r(G)p.r(G)p.r(C)p.r(U)p.r(U)p.m(U)p.r(A)p.m(C)p.r(A)p.r(A)p.r(G)p.r(C)p.r(G)p.r(U)p.r(U)p.r(U)p.r(U)p.r(C)p.r(T)p.r(T)}$$$RNA1{StrandType:ss}|RNA2{StrandType:as}$	54%
